Source: ChEMBL document CHEMBL1124314, “Development of phosphonate derivatives of gadolinium chelates for NMR imaging of calcified soft tissues” (J Med Chem, 1989)

What was measured:
Rattus norvegicus [1] = organism: Rattus norvegicus; assay: Biodistribution in rat blood in the presence of 0.01 M GdDTPA-BDP; type: ADME, organism-based; conditions: in vivo
Rattus norvegicus [2] = organism: Rattus norvegicus; assay: Biodistribution in rat bone in the presence of GdDTPA-HPDP at 15 min; type: ADME, organism-based, Bone element; conditions: in vivo, 0.25 h
Rattus norvegicus [3] = organism: Rattus norvegicus; assay: Biodistribution in rat blood in the presence of GdDTPA-HPDP at 15 min; type: ADME, organism-based; conditions: in vivo, 0.25 h
Rattus norvegicus [4] = organism: Rattus norvegicus; assay: Biodistribution in rat muscle in the presence of 0.01 M GdDTPA-BDP; type: ADME, organism-based, Muscle tissue; conditions: in vivo
Rattus norvegicus [5] = organism: Rattus norvegicus; assay: Biodistribution in rat bone in the presence of GdDTPA at 20 min; conditions: in vivo, 0.33 h
Rattus norvegicus [6] = organism: Rattus norvegicus; assay: Biodistribution in rat heart in the presence of GdDTPA-BDP at 2 hr; conditions: in vivo
Rattus norvegicus [7] = organism: Rattus norvegicus; assay: Biodistribution in rat blood in the presence of 0.05 M/0.08 M GdDTPA-HPDP; type: ADME, organism-based; conditions: in vivo
Rattus norvegicus [8] = organism: Rattus norvegicus; assay: Biodistribution in rat muscle in the presence of GdDTPA-BDPat 15 min; type: ADME, organism-based, Muscle tissue; conditions: in vivo, 0.25 h
Rattus norvegicus [9] = organism: Rattus norvegicus; assay: Biodistribution in rat muscle in the presence of GdDTPA-HPDP at 4 hr; type: ADME, organism-based, Muscle tissue; conditions: in vivo
Rattus norvegicus [10] = organism: Rattus norvegicus; assay: Biodistribution in rat heart in the presence of GdDTPA-HPDP at 1 hr; type: ADME, organism-based; conditions: in vivo
Rattus norvegicus [11] = organism: Rattus norvegicus; assay: Biodistribution in rat bone in the presence of 0.01 M GdDTPA-BDP; type: ADME, organism-based, Bone element; conditions: in vivo
Rattus norvegicus [12] = organism: Rattus norvegicus; assay: Biodistribution in rat bone in the presence of 0.01 M/0.01 M GdDTPA-AEP; type: ADME, organism-based, Bone element; conditions: in vivo
Rattus norvegicus [13] = organism: Rattus norvegicus; assay: Biodistribution in rat blood in the presence of GdDTPA-BDP at 1 hr; conditions: in vivo
Rattus norvegicus [14] = organism: Rattus norvegicus; assay: Biodistribution in rat bone in the presence of GdDTPA-BDP at 4 hr; type: ADME, organism-based, Bone element; conditions: in vivo
Rattus norvegicus [15] = organism: Rattus norvegicus; assay: Biodistribution in rat blood in the presence of GdDTPA-BDP at 20 min; conditions: in vivo, 0.33 h
Rattus norvegicus [16] = organism: Rattus norvegicus; assay: Biodistribution in rat liver in the presence of GdDTPA-HPDP at 4 hr; type: ADME, organism-based; conditions: in vivo
Rattus norvegicus [17] = organism: Rattus norvegicus; assay: Biodistribution in rat liver in the presence of GdDTPA at 1 hr; type: ADME, organism-based; conditions: in vivo
Rattus norvegicus [18] = organism: Rattus norvegicus; assay: Biodistribution in rat bone in the presence of 0.10 M/0.11 M GdDTPA-AEP; type: ADME, organism-based, Bone element; conditions: in vivo
Rattus norvegicus [19] = organism: Rattus norvegicus; assay: Biodistribution in rat blood in the presence of GdDTPA at 1 hr; type: ADME, organism-based; conditions: in vivo
Rattus norvegicus [20] = organism: Rattus norvegicus; assay: Biodistribution in rat liver in the presence of 0.01 M GdDTPA-BDP; type: ADME, organism-based; conditions: in vivo
Rattus norvegicus [21] = organism: Rattus norvegicus; assay: Biodistribution in rat muscle in the presence of 0.05 M GdDTPA-BDP; type: ADME, organism-based, Muscle tissue; conditions: in vivo
Rattus norvegicus [22] = organism: Rattus norvegicus; assay: Biodistribution in rat liver in the presence of GdDTPA at 4 hr; type: ADME, organism-based; conditions: in vivo
Rattus norvegicus [23] = organism: Rattus norvegicus; assay: Biodistribution in rat blood in the presence of NAC Gd/0.01 M GdDTPA-HPDP; type: ADME, organism-based; conditions: in vivo
Rattus norvegicus [24] = organism: Rattus norvegicus; assay: Biodistribution in rat kidney in the presence of 0.05 M/0.05 M GdDTPA-AEP; type: ADME, organism-based; conditions: in vivo
Rattus norvegicus [25] = organism: Rattus norvegicus; assay: Biodistribution in rat liver in the presence of NAC Gd/0.01 M GdDTPA-HPDP; type: ADME, organism-based; conditions: in vivo
Rattus norvegicus [26] = organism: Rattus norvegicus; assay: Biodistribution in rat muscle in the presence of GdDTPA-HPDPat 30 min; type: ADME, organism-based, Muscle tissue; conditions: in vivo, 0.5 h
Rattus norvegicus [27] = organism: Rattus norvegicus; assay: Biodistribution in rat muscle in the presence of 0.10 M GdDTPA-BDP; type: ADME, organism-based, Muscle tissue; conditions: in vivo
Rattus norvegicus [28] = organism: Rattus norvegicus; assay: Biodistribution in rat bone in the presence of 0.05 M/0.05 M GdDTPA-AEP; type: ADME, organism-based, Bone element; conditions: in vivo
Rattus norvegicus [29] = organism: Rattus norvegicus; assay: Biodistribution in rat heart in the presence of 0.05 M GdDTPA-BDP; type: ADME, organism-based; conditions: in vivo
Rattus norvegicus [30] = organism: Rattus norvegicus; assay: Biodistribution in rat blood in the presence of 0.10 M/0.11 M GdDTPA-HPDP; conditions: in vivo
Rattus norvegicus [31] = organism: Rattus norvegicus; assay: Biodistribution in rat bone in the presence of GdDTPA at 30 min; type: ADME, organism-based, Bone element; conditions: in vivo, 0.5 h
Rattus norvegicus [32] = organism: Rattus norvegicus; assay: Biodistribution in rat liver in the presence of 0.05 M/0.08 M GdDTPA-HPDP; type: ADME, organism-based; conditions: in vivo
Rattus norvegicus [33] = organism: Rattus norvegicus; assay: Biodistribution in rat liver in the presence of 0.05 M GdDTPA-BDP; type: ADME, organism-based; conditions: in vivo
Rattus norvegicus [34] = organism: Rattus norvegicus; assay: Biodistribution in rat muscle in the presence of GdDTPA-HPDP at 1 hr; type: ADME, organism-based, Muscle tissue; conditions: in vivo
Rattus norvegicus [35] = organism: Rattus norvegicus; assay: Biodistribution in rat kidney in the presence of 0.10 M GdDTPA-BDP; type: ADME, organism-based; conditions: in vivo
Rattus norvegicus [36] = organism: Rattus norvegicus; assay: Biodistribution in rat bone in the presence of GdDTPA-BDP at 4 hr; conditions: in vivo
Rattus norvegicus [37] = organism: Rattus norvegicus; assay: Biodistribution in rat heart in the presence of 0.01 M Gd/0.01 M GdDTPA-AEP; type: ADME, organism-based; conditions: in vivo
Rattus norvegicus [38] = organism: Rattus norvegicus; assay: Biodistribution in rat heart in the presence of GdDTPA; conditions: in vivo
Rattus norvegicus [39] = organism: Rattus norvegicus; assay: Biodistribution in rat heart in the presence of 0.10 M/0.11 M GdDTPA-HPDP; conditions: in vivo
Rattus norvegicus [40] = organism: Rattus norvegicus; assay: Biodistribution in rat blood in the presence of GdDTPA-BDP at 4 hr; type: ADME, organism-based; conditions: in vivo
Rattus norvegicus [41] = organism: Rattus norvegicus; assay: Biodistribution in rat kidney in the presence of 0.05 M/0.08 M GdDTPA-HPDP; type: ADME, organism-based; conditions: in vivo
Rattus norvegicus [42] = organism: Rattus norvegicus; assay: Biodistribution in rat blood in the presence of GdDTPA-HPDP at 4 hr; type: ADME, organism-based; conditions: in vivo
Rattus norvegicus [43] = organism: Rattus norvegicus; assay: Biodistribution in rat blood in the presence of 0.05 M GdDTPA-BDP; type: ADME, organism-based; conditions: in vivo
Rattus norvegicus [44] = organism: Rattus norvegicus; assay: Biodistribution in rat bone in the presence of GdDTPA-HPDP at 4 hr; type: ADME, organism-based, Bone element; conditions: in vivo
Rattus norvegicus [45] = organism: Rattus norvegicus; assay: Biodistribution in rat bone in the presence of GdDTPA-BDP at 1 h; conditions: in vivo

Q: Which ID/organ (Rattus norvegicus [1]) does the source give for O=C(O)CN(CCN(CC(=O)O)CC(=O)O)CCN(CC(=O)O)CC(=O)O [PENTETIC ACID] here?
A: 9.49%

Q: And the ID/organ (Rattus norvegicus [2])?
A: 15.5%

Q: And the ID/organ (Rattus norvegicus [3])?
A: 4.07%

Q: And the ID/organ (Rattus norvegicus [4])?
A: 4.38%

Q: And the ID/organ (Rattus norvegicus [5])?
A: 3.5%

Q: What about the ID/organ (Rattus norvegicus [6]) of the same compound?
A: 0.048%

Q: What about the ID/organ (Rattus norvegicus [7]) of the same compound?
A: 0.27%

Q: And the ID/organ (Rattus norvegicus [8])?
A: 8.97%

Q: What about the ID/organ (Rattus norvegicus [9]) of the same compound?
A: 0.223%

Q: What about the ID/organ (Rattus norvegicus [10]) of the same compound?
A: 0.011%

Q: And the ID/organ (Rattus norvegicus [11])?
A: 20.5%

Q: And the ID/organ (Rattus norvegicus [12])?
A: 0.641%

Q: What about the ID/organ (Rattus norvegicus [13]) of the same compound?
A: 2.74%

Q: And the ID/organ (Rattus norvegicus [14])?
A: 18.5%

Q: What about the ID/organ (Rattus norvegicus [15]) of the same compound?
A: 4.43%

Q: And the ID/organ (Rattus norvegicus [16])?
A: 0.202%

Q: What about the ID/organ (Rattus norvegicus [17]) of the same compound?
A: 0.267%

Q: What about the ID/organ (Rattus norvegicus [18]) of the same compound?
A: 16.4%

Q: What about the ID/organ (Rattus norvegicus [19]) of the same compound?
A: 0.094%

Q: And the ID/organ (Rattus norvegicus [20])?
A: 5.21%

Q: What about the ID/organ (Rattus norvegicus [21]) of the same compound?
A: 4.47%

Q: And the ID/organ (Rattus norvegicus [22])?
A: 0.163%

Q: And the ID/organ (Rattus norvegicus [23])?
A: 0.26%

Q: And the ID/organ (Rattus norvegicus [24])?
A: 0.264%

Q: And the ID/organ (Rattus norvegicus [25])?
A: 0.082%

Q: And the ID/organ (Rattus norvegicus [26])?
A: 4.09%

Q: What about the ID/organ (Rattus norvegicus [27]) of the same compound?
A: 3.59%

Q: What about the ID/organ (Rattus norvegicus [28]) of the same compound?
A: 0.483%

Q: And the ID/organ (Rattus norvegicus [29])?
A: 0.048%

Q: And the ID/organ (Rattus norvegicus [30])?
A: 0.19%

Q: What about the ID/organ (Rattus norvegicus [31]) of the same compound?
A: 0.779%

Q: What about the ID/organ (Rattus norvegicus [32]) of the same compound?
A: 0.109%

Q: And the ID/organ (Rattus norvegicus [33])?
A: 1.23%

Q: What about the ID/organ (Rattus norvegicus [34]) of the same compound?
A: 0.889%

Q: What about the ID/organ (Rattus norvegicus [35]) of the same compound?
A: 0.29%

Q: What about the ID/organ (Rattus norvegicus [36]) of the same compound?
A: 18.5%

Q: What about the ID/organ (Rattus norvegicus [37]) of the same compound?
A: 0.012%

Q: And the ID/organ (Rattus norvegicus [38])?
A: 0.019%

Q: What about the ID/organ (Rattus norvegicus [39]) of the same compound?
A: 0.006%

Q: What about the ID/organ (Rattus norvegicus [40]) of the same compound?
A: 2.26%

Q: What about the ID/organ (Rattus norvegicus [41]) of the same compound?
A: 0.423%

Q: What about the ID/organ (Rattus norvegicus [42]) of the same compound?
A: 0.068%

Q: What about the ID/organ (Rattus norvegicus [43]) of the same compound?
A: 2.53%

Q: What about the ID/organ (Rattus norvegicus [44]) of the same compound?
A: 18.1%

Q: What about the ID/organ (Rattus norvegicus [45]) of the same compound?
A: 17.6%
